# Reference: patent publication US6951855B2, “Benzoxazinone derivatives for use in the treatment of angiogenesis” (AstraZeneca AB, priority 2001, dated 2005)
row,melting point,SMILES
1,181 to 182 °C,"Nc1cccc(Sc2ccc3c(c2)OCC(=O)N3)c1 [Example 5, 7-[(3-Aminophenyl)sulfanyl]-2H-1,4-benzoxazine-3(4H)-one]"
2,230 to 232 °C,"CC(=O)Nc1ccc(Oc2ccc3c(c2)OCC(=O)N3)cc1 [Example 19, 7-(4-Acetylaminophenoxy)-2H-1,4-benzoxazin-3(4H)-one]"
3,209 to 210 °C,"Nc1cccc(Oc2ccc3c(c2)OCC(=O)N3)c1 [Example 17, 7-(3-Aminophenoxy)-2H-1,4-benzoxazin-3(4H)-one]"
4,204 to 205 °C,"Nc1ccccc1Sc1ccc2c(c1)OCC(=O)N2 [Example 4, 7-[(2-Aminophenyl)sulfanyl]-2H-1,4-benzoxazin-3(4H)-one]"
5,174 to 175 °C,"COc1ccc(Nc2ccc3c(c2)OCC(=O)N3)cc1 [Example 14, 7-(4-Methoxyanilino)-2H-1,4-benzoxazin-3(4H)-one]"
6,163 to 164 °C,"COc1ccc(Oc2ccc3c(c2)OCC(=O)N3)cc1 [Example 1, 7-(4-Methoxyphenoxy)-2H-1,4-benzoxazin-3(4H)-one]"
7,232 to 234 °C,"Nc1ccc(Sc2ccc3c(c2)OCC(=O)N3)cc1 [Example 3, 7-[(4-Aminophenyl)sulfanyl]-2H-1,4-benzoxazin-3(4H)-one]"
8,170 to 171 °C,"COc1ccc(Sc2ccc3c(c2)OCC(=O)N3)cc1OC [Example 7, 7-[(3,4-Dimethoxyphenyl)sulfanyl]-2H-1,4-benzoxazin-3(4H)-one]"
9,236 to 238 °C,"O=C1COc2cc(Sc3ccc(O)c(O)c3)ccc2N1 [Example 8, 7-[(3,4-Dihydroxyphenyl)sulfanyl]-2H-1,4-benzoxazin-3(4H)-one]"
10,207 to 209 °C,"O=C1COc2cc(SCc3ccc(O)cc3)ccc2N1 [Example 13, 7-(4-Hydroxybenzylsulfanyl)-2H-1,4-benzoxazin-3(4H)-one]"
11,270 to 275 °C,"O=C1COc2cc(Nc3ccc(O)cc3)ccc2N1 [Example 15, 7-(4-Hydroxyanilino)-2H-1,4-benzoxazin-3(4H)-one]"
12,154 to 155 °C,"O=C1COc2cc(SCc3ccccc3)ccc2N1 [Example 9, 7-Benzylsulfanyl-2H-1,4-benzoxazin-3(4H)-one]"
13,224 to 225 °C,"O=C1COc2cc(Sc3ccc(O)cc3)ccc2N1 [Example 6, 7-[(4-Hydroxyphenyl)sulfanyl]-2H-1,4-benzoxazin-3(4H)-one]"
14,149 to 150 °C,"Nc1ccccc1Oc1ccc2c(c1)OCC(=O)N2 [Example 18, 7-(2-Aminophenoxy)-2H-1,4-benzoxazin-3(4H)-one]"
15,250 to 251 °C,"O=C1COc2cc(Oc3ccc(O)cc3)ccc2N1 [Example 2, 7-(4-Hydroxyphenoxy)-2H-1,4-benzoxazin-3(4H)-one]"
